Test results from patent US20240182453A1, “NOVEL SUBSTITUTED PYRAZINE-CARBOXAMIDE DERIVATIVES” (Boehringer Ingelheim International GmbH, priority 2022, published 2024).

molecular target: human metabotropic Glutamate 4 receptor (mGluR4) (Homo sapiens (Human), UniProt Q14833); assay: Assay A: in vitro testing of mGluR4 potency (glutamate-induced cAMP lowering, HTRF cAMP); format: cell-based; details: HEK293 cells overexpressing human mGluR4; 10 uM L-glutamic acid, 1 uM forskolin; compounds of the present invention
Sequence (Q14833 33-912): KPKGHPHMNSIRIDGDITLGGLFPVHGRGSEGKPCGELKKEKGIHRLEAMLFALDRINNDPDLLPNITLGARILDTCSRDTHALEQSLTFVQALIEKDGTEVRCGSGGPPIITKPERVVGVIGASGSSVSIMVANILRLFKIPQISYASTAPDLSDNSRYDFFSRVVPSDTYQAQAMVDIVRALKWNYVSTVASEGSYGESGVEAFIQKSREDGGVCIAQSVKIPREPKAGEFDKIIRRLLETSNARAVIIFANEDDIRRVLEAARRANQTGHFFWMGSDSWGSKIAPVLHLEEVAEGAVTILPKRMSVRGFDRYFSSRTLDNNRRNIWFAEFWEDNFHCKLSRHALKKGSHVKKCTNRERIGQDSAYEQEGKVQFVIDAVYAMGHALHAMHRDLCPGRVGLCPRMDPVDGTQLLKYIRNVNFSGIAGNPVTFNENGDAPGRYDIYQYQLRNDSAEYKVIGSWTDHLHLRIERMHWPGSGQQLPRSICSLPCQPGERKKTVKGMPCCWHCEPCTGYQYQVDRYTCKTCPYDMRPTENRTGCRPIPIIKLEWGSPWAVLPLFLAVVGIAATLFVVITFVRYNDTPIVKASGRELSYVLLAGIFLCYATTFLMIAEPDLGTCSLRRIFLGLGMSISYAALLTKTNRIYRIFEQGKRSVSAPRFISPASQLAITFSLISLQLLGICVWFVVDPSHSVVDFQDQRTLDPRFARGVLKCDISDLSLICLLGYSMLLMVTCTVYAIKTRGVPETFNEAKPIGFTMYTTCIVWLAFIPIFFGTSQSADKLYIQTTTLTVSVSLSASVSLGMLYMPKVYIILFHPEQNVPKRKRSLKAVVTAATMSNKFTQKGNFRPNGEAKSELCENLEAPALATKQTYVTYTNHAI
Procedure: A. In Vitro Testing of mGluR4 Potency
The in vitro activity of the compounds according to the invention may be investigated as follows:
The HEK293 cell overexpressing the human metabotropic Glutamate 4 receptor are thawed at 37° C. and immediately diluted with cell culture medium. After centrifugation, the cell pellet is re-suspended in medium and then distributed from a stirred spinner flask into the wells of the assay plate. The plates are incubated for one hour at room temperature before they are incubated for 24 hours at 37° C./5% CO2. After washing the cells in the plate three times with 80 uL HBSS/HEPES buffer (10 uL buffer remained in the wells after washing), 5 uL per well of compounds diluted in HBSS/HEPES buffer containing 0.2% BSA (final concentration: 0.1%) and 1 mM IBMX (final concentration: 0.5 mM) are added to the wells of the assay plate. Thereafter 5 uL per well of L-Glutamic acid (final concentration: 10 uM), forskolin (final concentration: 1 uM) and 1 mM IBMX (final concentration: 0.5 mM) dissolved in HBSS/HEPES buffer containing 0.2% BSA (final concentration: 0.1%) are added to the assay plate (final DMSO concentration: 1%). Several wells of the assay plate are used either for the positive and the negative controls or for the cAMP standard curve. The assay plate is incubated for 30 minutes at room temperature. Then 5 ul per well of Anti-cAMP-Antibody-d2 solution and 5 ul per well of cAMP-Europium Cryptate dilution are added to all wells of the plate and the plate is incubated another 60 minutes light protected at room temperature. The emission at 615 nm and 665 nm (Excitation wavelength: 320 nm) are measured on the EnVision™ reader (Perkin Elmer). The ratio between the emission at 665 nm and 615 is calculated by the reader. The whole assay is performed in the dark or under green light.
The cAMP standard is prepared by diluting the cAMP stock solution with HBSS/Hepes buffer: 5 μl/well of the cAMP dilutions (in HBSS/Hepes buffer containing 1 mM IBMX and 0.2% BSA—final concentration: 0.5 mM IBMX and 0.1% BSA) are added to 10 ul/well HBSS/Hepes buffer plus 5 ul/well 4% DMSO in HBSS/Hepes containing 0.2% BSA (final DMSO concentration: 1%—like in the wells containing compounds) in the wells of the assay plate. The final cAMP concentrations in the assay plate are: 0, 0.17, 0.69, 2.78, 11.1, 44.5, 178, and 712 nM (two wells/cAMP concentration).
Each assay microtiter plate contained also wells with vehicle controls instead of compound as controls for L-Glutamic acid induced signal (negative control; 100% CTL; 10 uM L-Glutamic acid+1 uM forskolin+0.5 mM IBMX+1% DMSO) and wells with vehicle controls without L-Glutamic acid as controls for non-specific changes in signal (positive control; 0% CTL; 0 uM L-Glutamic acid+1 uM forskolin+0.5 mM IBMX+1% DMSO).
The analysis of the data is performed by the calculation the ratio between the emission at 665 nm and the emission at 615 nm (Em665/Em615 ratio). Thereafter the signals of the compounds are normalized using the positive and negative controls by the following formula:
PoC=100×((Signal Sample−Positive Control)/(Negative Control−Positive Control))

| SMILES | IC50 [nM] |
| --- | --- |
| Cc1cnc(C(=O)N[C@H](c2nc3cc(F)ccc3n2CC(F)(F)F)C2CC2)cn1 [Example 27, N-[(S)-cyclopropyl[5-fluoro-1-(2,2,2-trifluoroethyl)-1H-1,3-benzodiazol-2-yl]methyl]-5-methylpyrazine-2-carboxamide] | 5 |
| Cn1c([C@@H](NC(=O)c2cnc(C(F)F)cn2)C2CC2)nc2cc(F)ccc21 [Example 30, N-[(S)-cyclopropyl (5-fluoro-1-methyl-1H-1,3-benzodiazol-2-yl)methyl]-5-(difluoromethyl)pyrazine-2-carboxamide] | 18 |
| Cc1cnc(C(=O)N[C@H](c2nc3cc(C(F)(F)F)ccc3n2C)[C@]2(O)CCCOC2)cn1 [Example 32, N-[(R)-[(3R)-3-hydroxyoxaN-3-yl][1-methyl-5-(trifluoromethyl)-1H-1,3-benzodiazol-2-yl]methyl]-5-methylpyrazine-2-carboxamide] | 16 |
| CCn1c([C@@H](NC(=O)c2cnc(C(F)F)cn2)C2CC2)nc2c(C)c(C#N)ccc21 [Example 33, N-[(S)-(5-cyano-1-ethyl-4-methyl-1H-1,3-benzodiazol-2-yl)(cyclopropyl)methyl]-5-(difluoromethyl)pyrazine-2-carboxamide] | 4 |
| CCn1c([C@@H](NC(=O)c2cnc(C)cn2)C2CC2)nc2cc(C(F)(F)F)ccc21 [Example 36, N-[(S)-cyclopropyl[1-ethyl-5-(trifluoromethyl)-1H-1,3-benzodiazol-2-yl]methyl]-5-methylpyrazine-2-carboxamide] | 3 |
| CCn1c([C@@H](NC(=O)c2cnc(C)cn2)C2CC2)nc2c(C)c(C#N)ccc21 [Example 38, N-[(S)-(5-cyano-1-ethyl-4-methyl-1H-1,3-benzodiazol-2-yl)(cyclopropyl)methyl]-5-methylpyrazine-2-carboxamide] | 5 |
| COCCn1c([C@@H](NC(=O)c2cnc(C(F)F)cn2)[C@@H]2CCCO2)nc2cc(OC(F)(F)F)ccc21 [Example 40, 5-(difluoromethyl)-N-[(R)-[1-(2-methoxyethyl)-5-(trifluoromethoxy)-1H-1,3-benzodiazol-2-yl][(2S)-oxolan-2-yl]methyl]pyrazine-2-carboxamide] | 2 |
| Cc1cnc(C(=O)N[C@H](c2nc3c(C)c(C#N)ccc3n2CC(F)F)C2CC2)cn1 [Example 44, N-[(S)-[5-cyano-1-(2,2-difluoroethyl)-4-methyl-1H-1,3-benzodiazol-2-yl](cyclopropyl)methyl]-5-methylpyrazine-2-carboxamide] | 5 |
| CCn1c([C@@H](NC(=O)c2cnc(C)cn2)C2CC2)nc2cc(OC(F)(F)F)ccc21 [Example 46, N-[(S)-cyclopropyl[1-ethyl-5-(trifluoromethoxy)-1H-1,3-benzodiazol-2-yl]methyl]-5-methylpyrazine-2-carboxamide] | 2 |
| COCCn1c([C@@H](NC(=O)c2cnc(C(F)F)cn2)[C@H]2CCOC2)nc2cc(F)ccc21 [Example 48, 5-(difluoromethyl)-N-[(S)-[5-fluoro-1-(2-methoxyethyl)-1H-1,3-benzodiazol-2-yl][(3R)-oxolaN-3-yl]methyl]pyrazine-2-carboxamide] | 21 |
| CCn1c([C@@H](NC(=O)c2cnc(C)cn2)C(C)(C)O)nc2cc(F)c(F)cc21 [Example 50, N-[(1R)-1-(1-ethyl-5,6-difluoro-1H-1,3-benzodiazol-2-yl)-2-hydroxy-2-methylpropyl]-5-methylpyrazine-2-carboxamide] | 24 |

Continued, values first:

| IC50 [nM] | SMILES |
| --- | --- |
| 10 | COCCn1c([C@@H](NC(=O)c2cnc(C)cn2)[C@@H](C)OC(F)F)nc2cc(F)c(F)cc21 [Example 28, N-[(1R,2R)-1-[5,6-difluoro-1-(2-methoxyethyl)-1H-1,3-benzodiazol-2-yl]-2-(difluoromethoxy)propyl]-5-methylpyrazine-2-carboxamide] |
| 11 | CO[C@H](C)[C@H](NC(=O)c1cnc(C)cn1)c1nc2cc(Cl)ccc2n1C [Example 29, N-[(1R,2R)-1-(5-chloro-1-methyl-1H-1,3-benzodiazol-2-yl)-2-methoxypropyl]-5-methylpyrazine-2-carboxamide] |
| 6 | Cc1cnc(C(=O)N[C@H](c2nc3cc(C(F)(F)F)ccc3n2C)C2CC2)cn1 [Example 31, N-[(S)-cyclopropyl[1-methyl-5-(trifluoromethyl)-1H-1,3-benzodiazol-2-yl]methyl]-5-methylpyrazine-2-carboxamide] |
| 5 | Cc1cnc(C(=O)N[C@H](c2nc3cc(Br)ccc3n2C)C2CC2)cn1 [Example 34, N-[(S)-(5-bromo-1-methyl-1H-1,3-benzodiazol-2-yl)(cyclopropyl)methyl]-5-methylpyrazine-2-carboxamide] |
| 2 | COCCn1c([C@@H](NC(=O)c2cnc(C)cn2)C2CC2)nc2cc(C(F)(F)F)ccc21 [Example 35, N-[(S)-cyclopropyl[1-(2-methoxyethyl)-5-(trifluoromethyl)-1H-1,3-benzodiazol-2-yl]methyl]-5-methylpyrazine-2-carboxamide] |
| 9 | Cc1cnc(C(=O)N[C@H](c2nc3cc(F)ccc3n2CC(F)F)C(C)C)cn1 [Example 37, N-[(1S)-1-[1-(2,2-difluoroethyl)-5-fluoro-1H-1,3-benzodiazol-2-yl]-2-methylpropyl]-5-methylpyrazine-2-carboxamide] |
| 28 | CCn1c([C@@H](NC(=O)c2cnc(C)cn2)C(C)(C)O)nc2cc(F)ccc21 [Example 39, N-[(1R)-1-(1-ethyl-5-fluoro-1H-1,3-benzodiazol-2-yl)-2-hydroxy-2-methylpropyl]-5-methylpyrazine-2-carboxamide] |
| 2 | CO[C@H](C)[C@H](NC(=O)c1cnc(C)cn1)c1nc2cc(OC(F)(F)F)ccc2n1CCOC(C)C [Example 41, N-[(1R,2R)-2-methoxy-1-{1-[2-(propan-2-yloxy)ethyl]-5-(trifluoromethoxy)-1H-1,3-benzodiazol-2-yl}propyl]-5-methylpyrazine-2-carboxamide] |
| 2 | Cc1cnc(C(=O)N[C@H](c2nc3c(Cl)c(Br)ccc3n2C)C2CC2)cn1 [Example 42, N-[(S)-(5-bromo-4-chloro-1-methyl-1H-1,3-benzodiazol-2-yl)(cyclopropyl)methyl]-5-methylpyrazine-2-carboxamide] |
| 10 | CO[C@H](C)[C@H](NC(=O)c1cnc(C)cn1)c1nc2cc(OC(F)(F)F)ccc2n1C [Example 43, N-[(1R,2R)-2-methoxy-1-[1-methyl-5-(trifluoromethoxy)-1H-1,3-benzodiazol-2-yl]propyl]-5-methylpyrazine-2-carboxamide] |
| 26 | Cc1cnc(C(=O)N[C@H](c2nc3c(C)c(C#N)ccc3n2C)C2CC2)cn1 [Example 45, N-[(S)-(5-cyano-1,4-dimethyl-1H-1,3-benzodiazol-2-yl)(cyclopropyl)methyl]-5-methylpyrazine-2-carboxamide] |
| 9 | Cc1cnc(C(=O)N[C@H](c2nc3cc(Cl)ccc3n2C)C2CC2)cn1 [Example 47, N-[(S)-(5-chloro-1-methyl-1H-1,3-benzodiazol-2-yl)(cyclopropyl)methyl]-5-methylpyrazine-2-carboxamide] |
| 7 | CCn1c([C@@H](NC(=O)c2cnc(C)cn2)C2CC2)nc2cc(OC(F)F)ccc21 [Example 49, N-[(S)-cyclopropyl[5-(difluoromethoxy)-1-ethyl-1H-1,3-benzodiazol-2-yl]methyl]-5-methylpyrazine-2-carboxamide] |
